Measured values taken from the supplement of paper PMC10307832.

Key:
Assay in all cases: relative viability (nuclei count vs DMSO), 5 days (fraction); higher = more cells survive
Olaparib + Trametinib = compound: O=C(c1cc(Cc2n[nH]c(=O)c3ccccc23)ccc1F)N1CCN(C(=O)C2CC2)CC1 [Olaparib] + CC(=O)Nc1cccc(-n2c(=O)n(C3CC3)c(=O)c3c(Nc4ccc(I)cc4F)n(C)c(=O)c(C)c32)c1 [Trametinib] (partner 0.02 µM)
Method in brief: (§1)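 Each reported value is a median over duplicate plates. It expresses relative viability: treated-well nuclei count divided by vehicle-well nuclei count. Lung cancer cell lines in 1536-well plates were dosed by pin tool a day after seeding, alone with one drug or with a fixed anchor-drug dose plus five library-drug doses (not always all listed) in √10 steps, and nuclei were counted after 5 days.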

Carfilzomib + Trametinib = compound: CC(C)C[C@H](NC(=O)[C@H](CCc1ccccc1)NC(=O)CN1CCOCC1)C(=O)N[C@@H](Cc1ccccc1)C(=O)N[C@@H](CC(C)C)C(=O)[C@@]1(C)CO1 [Carfilzomib] + CC(=O)Nc1cccc(-n2c(=O)n(C3CC3)c(=O)c3c(Nc4ccc(I)cc4F)n(C)c(=O)c(C)c32)c1 [Trametinib] (partner 0.02 µM)
Method in brief: as §1

Carfilzomib + Crizotinib = compound: CC(C)C[C@H](NC(=O)[C@H](CCc1ccccc1)NC(=O)CN1CCOCC1)C(=O)N[C@@H](Cc1ccccc1)C(=O)N[C@@H](CC(C)C)C(=O)[C@@]1(C)CO1 [Carfilzomib] + C[C@@H](Oc1cc(-c2cnn(C3CCNCC3)c2)cnc1N)c1c(Cl)ccc(F)c1Cl [Crizotinib] (partner 1 µM)
Method in brief: as §1

Crizotinib + Phenformin = compound: C[C@@H](Oc1cc(-c2cnn(C3CCNCC3)c2)cnc1N)c1c(Cl)ccc(F)c1Cl [Crizotinib] + N=C(N)NC(=N)NCCc1ccccc1 [Phenformin] (partner 250 µM)
Method in brief: as §1

| Cell Line | relative viability (Olaparib + Trametinib; first compound 0.08 µM) | relative viability (Olaparib + Trametinib; first compound 0.253 µM) | relative viability (Olaparib + Trametinib; first compound 2.53 µM) | relative viability (Olaparib + Trametinib; first compound 8 µM) | relative viability (Carfilzomib + Trametinib; first compound 0.001 µM) | relative viability (Carfilzomib + Trametinib; first compound 0.003162 µM) | relative viability (Carfilzomib + Trametinib; first compound 0.01 µM) | relative viability (Carfilzomib + Trametinib; first compound 0.03162 µM) | relative viability (Carfilzomib + Trametinib; first compound 0.1 µM) | relative viability (Carfilzomib + Crizotinib; first compound 0.001 µM) | relative viability (Carfilzomib + Crizotinib; first compound 0.003162 µM) | relative viability (Carfilzomib + Crizotinib; first compound 0.01 µM) | relative viability (Carfilzomib + Crizotinib; first compound 0.03162 µM) | relative viability (Carfilzomib + Crizotinib; first compound 0.1 µM) | relative viability (Crizotinib + Phenformin; first compound 0.01 µM) | relative viability (Crizotinib + Phenformin; first compound 0.03162 µM) | relative viability (Crizotinib + Phenformin; first compound 0.1 µM) | relative viability (Crizotinib + Phenformin; first compound 0.3162 µM) | relative viability (Crizotinib + Phenformin; first compound 1 µM) |
| --- | --- | --- | --- | --- | --- | --- | --- | --- | --- | --- | --- | --- | --- | --- | --- | --- | --- | --- | --- |
| SK-MES-1 | 0.577 | 0.539 | 0.608 | 0.616 | 0.545 | 0.536 | 0.549 | 0.44 | 0.201 | 1.04 | 1.05 | 1.09 | 0.752 | 0.169 | 0.617 | 0.676 | 0.638 | 0.645 | 0.593 |
| NCI-H1915 | 0.278 | 0.285 | 0.261 | 0.206 | 0.266 | 0.302 | 0.295 | 0.289 | 0.106 | 0.879 | 0.927 | 0.887 | 0.434 | 0.069 | 0.382 | 0.377 | 0.367 | – | 0.359 |
| SW 1573 | 0.591 | 0.565 | 0.515 | 0.473 | 0.55 | 0.626 | 0.55 | 0.0697 | 0.0572 | 0.887 | 0.864 | 0.793 | 0.261 | 0.0628 | 0.418 | 0.376 | 0.39 | 0.302 | 0.391 |
| NCI-H2087 | 0.219 | 0.208 | 0.215 | 0.188 | 0.187 | 0.235 | 0.131 | 0.0842 | 0.0653 | 0.876 | 1.03 | 0.827 | 0.0787 | 0.091 | 0.36 | 0.502 | 0.508 | – | 0.462 |
| BEN | 1.11 | 0.991 | 1.07 | 1.1 | 0.961 | 0.995 | 1.07 | 1.11 | 0.451 | 0.898 | 1.18 | 0.923 | 0.757 | 0.311 | 0.259 | 0.253 | 0.256 | 0.235 | 0.257 |
| NCI-H1650 | 0.6 | 0.503 | 0.62 | 0.565 | 0.487 | 0.537 | 0.52 | 0.103 | 0.1 | – | 0.839 | 0.642 | 0.114 | 0.139 | 0.411 | 0.401 | 0.387 | 0.377 | 0.389 |
| A-427 | 0.782 | 0.741 | 0.719 | 0.601 | 0.83 | 0.744 | 0.755 | 0.528 | 0.201 | 0.837 | 0.996 | 0.862 | 0.212 | 0.122 | 0.303 | 0.349 | 0.419 | – | 0.28 |
| CAL-12T | 0.351 | 0.292 | 0.417 | 0.305 | 0.367 | 0.288 | 0.428 | 0.167 | 0.11 | – | 0.814 | 0.72 | 0.18 | 0.0912 | 0.503 | 0.609 | 0.606 | – | 0.558 |
| EPLC-272H | 0.363 | 0.272 | 0.306 | 0.287 | 0.281 | 0.303 | 0.286 | 0.0724 | 0.0619 | 0.441 | 1.07 | 0.811 | 0.11 | 0.0759 | 0.261 | 0.283 | 0.302 | 0.29 | 0.39 |
| NCI-H1563 | – | – | – | – | – | – | – | – | – | 0.939 | 0.902 | 0.897 | 0.711 | 0.397 | 0.607 | 0.681 | 0.655 | 0.637 | 0.682 |
| NCI-H1395 | 1.11 | 0.876 | 0.852 | 0.629 | – | 0.997 | 1.11 | 0.566 | 0.344 | – | – | – | – | – | 0.435 | 0.464 | 0.493 | 0.427 | 0.382 |
| Calu-6 | – | – | – | – | – | – | – | – | – | 0.747 | 0.834 | 0.811 | 0.334 | 0.0815 | – | – | – | – | – |
| NCI-H2342 | 0.8 | 0.871 | 0.802 | 0.742 | 0.844 | 0.851 | 0.862 | 0.949 | 0.633 | – | – | – | – | – | 0.512 | 0.567 | 0.54 | 0.549 | 0.544 |
| NCI-H522 | 0.679 | 0.733 | 0.711 | 0.715 | 0.777 | 0.767 | 0.815 | 0.506 | 0.336 | – | – | – | – | – | 0.702 | 0.612 | 0.527 | 0.768 | 0.649 |
| NCI-H1623 | – | – | – | – | – | – | – | – | – | – | – | – | – | – | 0.557 | 0.499 | 0.611 | 0.608 | 0.551 |
| SW 900 | 0.867 | 0.758 | 0.85 | 0.815 | – | 0.804 | 0.163 | 0.177 | 0.126 | – | – | – | – | – | 0.556 | 0.651 | 0.652 | 0.586 | 0.723 |
| NCI-H1299 | – | – | – | – | – | – | – | – | – | 1.01 | 0.966 | 0.981 | 0.472 | 0.178 | – | – | – | – | – |
| ABC-1 | – | – | – | – | – | – | – | – | – | 1.15 | 0.805 | 0.385 | 0.177 | 0.172 | – | 0.22 | 0.211 | 0.238 | 0.269 |
| IA-LM | – | – | – | – | – | – | – | – | – | 0.956 | 0.796 | 0.502 | 0.0235 | 0.0632 | – | – | – | – | – |
| EBC-1 | – | – | – | – | – | – | – | – | – | 0.212 | 0.18 | 0.183 | 0.131 | 0.111 | – | – | – | – | – |
| NCI-H1703 | – | – | – | – | – | – | – | – | – | 0.579 | 0.73 | 0.168 | 0.0733 | 0.0878 | – | – | – | – | – |
